In data set [1] the target is ANXA2 (Homo sapiens, UniProt P07355). The data set can be described thus: Microscale thermophoresis (MST), ANXA2 binding. The following applies: read-out: apparent Kd, ANXA2. The source says:
Recombinant proteins and antibodies. Recombinant annexin A2, annexin A2 with glutathione-S-transferase (GST) tag, annexin A1, and annexin A3 proteins were purchased from MyBioSource, Inc. (San Diego, CA, USA). Purified ANXA2 protein and purified pANXA2 protein were gifts from Dr. Gabriel Bimme (Beth Israel Deaconess Medical Center, Boston, MA). Rabbit monoclonal anti-annexin A2 antibody (D11G2, #8235), Rabbit monoclonal anti-Rab5 (C8B1, #3547), and rabbit monoclonal anti-Rab7 (D95F2, #936 7) primary antibodies were purchased from Cell Signaling Technology, Inc. (Danvers, MA, USA). Mouse monoclonal anti-β-actin 2A3 (sc-517582), mouse monoclonal anti-pANXA2 antibody (11.Tyr 24) (sc-135752), rabbit polyclonal anti-NOS2 (C-19, sc-649), rabbit polyclonal anti-ARG1 (H-52, sc-20150) antibodies, and protein A/G agarose were purchased from Santa Cruz Biotechnology, Inc. (Dallas, TX, USA). […]
MST was performed using the Monolith NT.115 (Nanotemper Technologies, Munich, Germany). […] Fluorescence was assessed in MST-2 buffer (50 mM Tris-HCl, pH 7.4; 150 mM NaCl; 10 mM MgCl2). […] The apparent Kd values were calculated from fragment concentration-dependent changes in normalized fluorescence (Fraction Bound) of LS301 after 5 seconds of thermophoresis based on mass action law using the MO Affinity Analysis v2.3 software.

For data set [2], the system named is fibroblast co-cultured with ANXA2-positive GFP-expressing 4T1 cells. Description: Fibroblast and 4T1 co-culture uptake. The class given is cell-based. The method, then:
For co-culture experiments on intercellular pANXA2/ANXA2 transfer, fibroblasts (FB) (5×10^4 cells/well) were seeded on a 35-mm glass-bottom Petri dish (MarTek Cor. Ashland, MA, USA) overnight before seeding of 5×10^4 of cancer cells and further culture overnight before the experiment. LS301 (1 μM) was incubated with co-cultures of FB and ANXA2-YFP transfected HL60 cells, co-cultures of FB and wild-type HL60 cells, or co-cultures of FB and 4T1-GFP cells at 37° C. for 3 hours and then washed twice with 0.01 M PBS (pH 7.4). Then, the cells were fixed with 4% paraformaldehyde for 10 minutes.

Data set [3] can be described thus: Solubility and dilution stability of LS301 stock solutions. The following applies: transparent solution, no precipitate after centrifugation. It is filed as physicochemical. The method, then: At room temperature (˜25° C.), 200 μL of DMSO was added to 0.5 mg LS301 and vortexed for about 1 minute to homogenize. The solution was centrifuged to remove any non-dissolved components. The concentration was measured via absorbance.
Generally, solution concentrations ranged between 290 and 330 μM. This concentrated solution was diluted dropwise into 800 μL phosphate-buffered saline (PBS) calculated such that the final concentration was 60 μM LS301 and that the final concentration was 20% DMSO/80% PBS by volume (“20% DMSO”).
A 1:1 PEG400/Ethanol solution (v/v) was prepared by mixing 4 mL of PEG400 and 4 mL of ethanol and vortexing at high speed for 1 minute. 200 μL of this 1:1 solution was added to about 0.5 mg of LS301 to produce a transparent solution (>300 μM). No precipitate was observed after centrifugation.
LS301's solubility in ethanol ranged near the cutoff for producing a 20% ethanol/PBS solution. […] The 1:1 PEG400/ethanol solution could maintain stability up to about 1-to-16 dilution. In vivo, a screening test was done by IV injection of 60 μM solution into a Balb/c mouse with two 4T1luc tumors dorsally injected. […] To confirm LS301's multitumor affinity in the new solvent, solutions were tested against HT1080, A431, and DBT tumor-bearing mice.

Positions of bridges follow the written chain, without caps; N, C: chain ends. Non-standard residues stand in square brackets, D forms with d. Residues, ends and D or L forms follow the SMILES beside them. *: point of attachment. X1 = CC1(C)C(/C=C/C=C/C=C/C=C2/N(CCC(=O)*)c3ccc4ccccc4c3C2(C)C)=[N+](CCC(=O)[O-])c2ccc3ccccc3c21

ANXA2, sequence (P07355 whole entry): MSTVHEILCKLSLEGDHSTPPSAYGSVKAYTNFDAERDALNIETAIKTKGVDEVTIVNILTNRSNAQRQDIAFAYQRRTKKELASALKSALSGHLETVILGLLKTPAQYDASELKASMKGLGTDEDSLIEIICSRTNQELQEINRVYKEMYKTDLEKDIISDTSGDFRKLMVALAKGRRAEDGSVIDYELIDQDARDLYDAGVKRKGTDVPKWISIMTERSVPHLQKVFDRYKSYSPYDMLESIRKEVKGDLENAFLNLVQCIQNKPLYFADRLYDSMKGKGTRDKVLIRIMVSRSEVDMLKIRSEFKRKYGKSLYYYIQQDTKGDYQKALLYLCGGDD

For `CC1(C)C(/C=C/C=C/C=C/C=C2/N(CCC(=O)N[C@@H]3CSSC[C@@H](C(=O)N[C@@H](CCCCN)C(=O)O)NC(=O)[C@@H]4CCCN4C(=O)[C@H](CO)NC(=O)[C@H](CC(=O)O)NC(=O)[C@H](CCCNC(=N)N)NC(=O)CNC3=O)c3ccc4ccccc4c3C2(C)C)=[N+](CCC(=O)[O-])c2ccc3ccccc3c21` [LS301, cypate-cyclic (DCys-Gly-Arg-Asp-Ser-Pro-Cys)-Lys-OH] (X1-[dC]GRDSPCK-OH; disulfide 1-7), the Kd in data set [1] worked out at 0.389 ± 0.015 nM. Moreover, the uptake in co-culture result in data set [2] is “LS301 uptake by tumor cells and fibroblasts”. Moreover, the “solution concentration in 1:1 PEG400/Ethanol” value in data set [3] is over 300 µM.

The values above are taken from patent publication US12121596B2, “Near infrared fluorescent dyes, formulations and related methods” (Washington University, priority 2019, dated 2024).
